Values of other authors, collected in patent US6716459B2, “Composition for inhibiting increase of blood sugar level or lowering blood sugar level” (priority 1998, dated 2004).

Tested on: Ehrlich Ascites Tumour Cells
Settings: in vitro, Chem. Pharm. Bull. 41(12) 2129-2131 (1993)

C[C@H]1[C@H](C)CC[C@]2(C(=O)O)CC[C@]3(C)C(=CC[C@@H]4[C@@]5(C)C[C@@H](O)[C@H](O)C(C)(C)[C@@H]5CC[C@]43C)[C@H]12 [corosolic acid]
activity on the mobility of grape sugar: activates the mobility of grape sugar
